{"source": "ChEMBL document CHEMBL1151926", "about": "“Synthesis and SAR of C12-C13-oxazoline derivatives of epothilone A” (Bioorg Med Chem Lett, 2009)", "key": {"[1]": {"assay": "Antiproliferative activity against human KB-3-1 cells after 72 hrs", "type": "functional, cell-based", "conditions": "KB 3-1, 72 h"}, "[2]": {"test_system": "A549", "assay": "Antiproliferative activity against human A549 cells after 72 hrs", "type": "functional, cell-based", "conditions": "A549, 72 h"}, "[3]": {"test_system": "Tubulin (Sus scrofa)", "assay": "Induction of porcine brain tubulin polymerization at 5 uM relative to 25 uM epothilone B"}, "[4]": {"test_system": "MCF7", "assay": "Antiproliferative activity against human MCF7 cells after 72 hrs", "type": "functional, cell-based", "conditions": "MCF7, 72 h"}, "[5]": {"test_system": "Tubulin (Sus scrofa)", "assay": "Induction of porcine brain tubulin polymerization at 2 uM relative to 25 uM epothilone B"}}}
{"smiles": "COC1=N[C@H]2CCC[C@H](C)[C@H](O)[C@@H](C)C(=O)C(C)(C)[C@@H](O)CC(=O)O[C@H](/C(C)=C/c3csc(C)n3)C[C@@H]2O1", "values": [{"measurement": "IC50", "setting": "[1]", "value": "> 1000", "unit": "nM"}]}
{"smiles": "C/C(=C\\c1csc(C)n1)[C@@H]1CC2O[C@@H]2CCC[C@H](C)[C@H](O)[C@@H](C)C(=O)C(C)(C)[C@@H](O)CC(=O)O1", "note": "(single isomer, unassigned) [EPOTHILONE A]", "values": [{"measurement": "IC50", "setting": "[2]", "value": 2.2, "unit": "nM"}, {"measurement": "Activity", "setting": "[3]", "value": 89, "unit": "%"}, {"measurement": "IC50", "setting": "[4]", "value": 2.6, "unit": "nM"}, {"measurement": "Activity", "setting": "[5]", "value": 83, "unit": "%"}]}
{"smiles": "CCc1ccc(C2=N[C@H]3CCC[C@H](C)[C@H](O)[C@@H](C)C(=O)C(C)(C)[C@@H](O)CC(=O)O[C@H](/C(C)=C/c4csc(C)n4)C[C@@H]3O2)cc1", "values": [{"measurement": "IC50", "setting": "[2]", "value": 378, "unit": "nM"}, {"measurement": "Activity", "setting": "[3]", "value": 36, "unit": "%"}, {"measurement": "IC50", "setting": "[4]", "value": 297, "unit": "nM"}, {"measurement": "Activity", "setting": "[5]", "value": 32, "unit": "%"}]}
{"smiles": "CC1=N[C@H]2CCC[C@H](C)[C@H](O)[C@@H](C)C(=O)C(C)(C)[C@@H](O)CC(=O)O[C@H](/C(C)=C/c3csc(C)n3)C[C@@H]2O1", "values": [{"measurement": "IC50", "setting": "[1]", "value": "> 1000", "unit": "nM"}]}
{"smiles": "C/C(=C\\c1csc(C)n1)[C@@H]1C[C@@H]2OC(c3cccnc3)=N[C@H]2CCC[C@H](C)[C@H](O)[C@@H](C)C(=O)C(C)(C)[C@@H](O)CC(=O)O1", "values": [{"measurement": "IC50", "setting": "[2]", "value": 0.92, "unit": "nM"}, {"measurement": "Activity", "setting": "[3]", "value": 93, "unit": "%"}, {"measurement": "IC50", "setting": "[4]", "value": 1.3, "unit": "nM"}, {"measurement": "Activity", "setting": "[5]", "value": 78, "unit": "%"}]}
{"smiles": "C/C(=C\\c1csc(C)n1)[C@@H]1C[C@@H]2OC(c3ccc(C(C)C)cc3)=N[C@H]2CCC[C@H](C)[C@H](O)[C@@H](C)C(=O)C(C)(C)[C@@H](O)CC(=O)O1", "values": [{"measurement": "IC50", "setting": "[2]", "value": 4870, "unit": "nM"}, {"measurement": "Activity", "setting": "[3]", "value": 15, "unit": "%"}, {"measurement": "IC50", "setting": "[4]", "value": 5140, "unit": "nM"}, {"measurement": "Activity", "setting": "[5]", "value": 14, "unit": "%"}]}
{"smiles": "C/C(=C\\c1csc(C)n1)[C@@H]1C[C@@H]2OC(c3ccc(C(C)(C)C)cc3)=N[C@H]2CCC[C@H](C)[C@H](O)[C@@H](C)C(=O)C(C)(C)[C@@H](O)CC(=O)O1", "values": [{"measurement": "IC50", "setting": "[2]", "value": "> 10000", "unit": "nM"}, {"measurement": "Activity", "setting": "[3]", "value": 7, "unit": "%"}, {"measurement": "IC50", "setting": "[4]", "value": "> 10000", "unit": "nM"}, {"measurement": "Activity", "setting": "[5]", "value": 0, "unit": "%"}]}
{"smiles": "C/C(=C\\c1csc(C)n1)[C@@H]1C[C@@H]2OC(c3ccc(C)cc3)=N[C@H]2CCC[C@H](C)[C@H](O)[C@@H](C)C(=O)C(C)(C)[C@@H](O)CC(=O)O1", "values": [{"measurement": "IC50", "setting": "[2]", "value": 2.9, "unit": "nM"}, {"measurement": "Activity", "setting": "[3]", "value": 88, "unit": "%"}, {"measurement": "IC50", "setting": "[4]", "value": 1.9, "unit": "nM"}, {"measurement": "Activity", "setting": "[5]", "value": 71, "unit": "%"}]}
{"smiles": "C/C(=C\\c1csc(C)n1)[C@@H]1C[C@@H]2OC(c3ccccc3)=N[C@H]2CCC[C@H](C)[C@H](O)[C@@H](C)C(=O)C(C)(C)[C@@H](O)CC(=O)O1", "values": [{"measurement": "IC50", "setting": "[2]", "value": 16.4, "unit": "nM"}, {"measurement": "Activity", "setting": "[3]", "value": 80, "unit": "%"}, {"measurement": "IC50", "setting": "[4]", "value": 19.2, "unit": "nM"}, {"measurement": "Activity", "setting": "[5]", "value": 65, "unit": "%"}]}
